According to patent USRE29226E, “Preparation of carboxylate and sulfonate salts of 1-cis-(3-chloro-2-propenyl)-3,5,7-triaza-1-azoniatricyclo(3.3.1.1^3, 7)decane-II” (The Dow Chemical Company, priority 1976, dated 1977):
Where a name gives a salt, the structure may show the parent alone. Read-outs that look alike come from different tables or passages of the source.

Legend:
Assay type in all cases: cell-based
[1] = test system: P. chrysogenum; assay: conventional agar dilution test, P. chrysogenum; settings: Pen = P. chrysogenum
Source text: (§1) In representative operations, the products of the invention when tested for antimicrobial activity using conventional agar dilution tests gave complete growth inhibition against the following organisms at the indicated concentrations in parts per million:
(§2) Minimum Inhibitory Concentration, ppm

[2] = test system: A. aerogenes; assay: conventional agar dilution test, A. aerogenes; settings: Aa = A. aerogenes, complete growth inhibition
Source text: as §1, §2

[3] = test system: C. pelliculosa; assay: conventional agar dilution test, C. pelliculosa; settings: Cp = C. pelliculosa
Source text: as §1, §2

[4] = test system: P. aeruginosa; assay: conventional agar dilution test, P. aeruginosa; settings: Pa = P. aeruginosa, complete growth inhibition; for MIC: Pseudomonas aeruginosa, read-out: Minimum Inhibitory Concentration
Source text: as §1, §2

[5] = test system: S. cerevisiae; assay: conventional agar dilution test, S. cerevisiae; settings: Sc = S. cerevisiae; for MIC / Minimum Inhibitory Concentration: complete growth inhibition, agar dilution; for MIC: read-out: Minimum Inhibitory Concentration
Source text: as §1, §2

[6] = test system: S. aureus; assay: conventional agar dilution test, S. aureus; settings: Sa = S. aureus, complete growth inhibition
Source text: as §1, §2

[7] = test system: A. niger; assay: conventional agar dilution test, A. niger; settings: An = A. niger, complete growth inhibition; for MIC: Aspergillus niger, read-out: Minimum Inhibitory Concentration
Source text: as §1, §2

[8] = test system: S. typhosa; assay: conventional agar dilution test, S. typhosa; settings: St = S. typhosa, complete growth inhibition
Source text: as §1, §2

[9] = complete growth inhibition, agar dilution

SMILES	MIC ([1]; Penicillium chrysogenum, complete growth inhibition, agar dilution, read-out: Minimum Inhibitory Concentration) [µg/mL]	MIC ([2]; Klebsiella aerogenes, read-out: Minimum Inhibitory Concentration) [µg/mL]	inhibition at 500 ppm [3]	MIC [4] [µg/mL]	MIC ([5]; Saccharomyces cerevisiae) [µg/mL]	MIC ([6]; Staphylococcus aureus, read-out: Minimum Inhibitory Concentration) [µg/mL]	MIC [7] [µg/mL]	MIC ([8]; read-out: Minimum Inhibitory Concentration) [µg/mL]	Minimum Inhibitory Concentration [1, 9] [ppm]	Minimum Inhibitory Concentration [2] [ppm]	MIC ([3]; Hansenula anomala, complete growth inhibition, agar dilution, read-out: Minimum Inhibitory Concentration) [µg/mL]	Minimum Inhibitory Concentration [6] [ppm]	Minimum Inhibitory Concentration [8] [ppm]	Minimum Inhibitory Concentration [4] [ppm]	inhibition at 500 ppm ([5]; Saccharomyces cerevisiae, read-out: inhibition at 500 ppm) [%]	Minimum Inhibitory Concentration [7] [ppm]	inhibition at 500 ppm [5]	Minimum Inhibitory Concentration [5] [ppm]	Minimum Inhibitory Concentration [3, 9] [ppm]	inhibition at 500 ppm ([1]; Penicillium chrysogenum, 500 ppm) [%]
Cl/C=C\C[N+]12CN3CN(CN(C3)C1)C2.[Cl-] [Cis, cis-1-(3-chloro-2-propenyl)-3,5,7-triaza-1-azoniatricyclo(3.3.1.1^3,7)decane chloride, reference compound]	250	50	± (50% inhibition at 500 ppm)	100	250	50	> 500	25	–	–	–	–	–	–	–	–	–	–	–	–
Cl/C=C\C[N+]12CN3CN(CN(C3)C1)C2 [Example 1, Mono-benzoate Salt of Cis]	–	–	–	250	> 500	–	> 500	–	500	100	> 500	100	50	–	–	–	–	–	–	–
Cl/C=C\C[N+]12CN3CN(CN(C3)C1)C2 [Example 2, p-Toluene Sulfonate Mono-Salt of Cis]	–	–	± (50% inhibition at 500 ppm)	–	–	–	–	–	500	100	–	250	50	250	50	> 500	–	–	–	–
Cl/C=C\C[N+]12CN3CN(CN(C3)C1)C2 [Ia]	–	–	± (50% inhibition at 500 ppm)	–	–	–	–	–	> 500	100	–	100	50	250	–	> 500	± (50% inhibition at 500 ppm)	–	–	–
Cl/C=C\C[N+]12CN3CN(CN(C3)C1)C2 [Ib]	–	–	.-+. (>90% inhibition at 500 ppm)	–	–	–	–	–	500	75	–	75	50	250	–	> 500	± (50% inhibition at 500 ppm)	–	–	–
Cl/C=C\C[N+]12CN3CN(CN(C3)C1)C2 [Ic]	–	–	± (50% inhibition at 500 ppm)	–	–	–	–	–	500	100	–	100	100	250	–	> 500	–	500	–	–
Cl/C=C\C[N+]12CN3CN(CN(C3)C1)C2 [Id]	–	–	.-+. (>90% inhibition at 500 ppm)	–	–	–	–	–	500	250	–	250	50	250	–	> 500	–	500	–	–
Cl/C=C\C[N+]12CN3CN(CN(C3)C1)C2 [Ie]	–	–	–	–	–	–	–	–	> 500	250	–	75	25	250	–	> 500	–	> 500	> 500	–
Cl/C=C\C[N+]12CN3CN(CN(C3)C1)C2 [If]	–	–	–	–	–	–	–	–	100	250	–	250	75	250	–	250	–	500	250	–
Cl/C=C\C[N+]12CN3CN(CN(C3)C1)C2 [Ig]	–	–	–	–	–	–	–	–	–	250	–	50	50	250	–	> 500	–	> 500	> 500	> 90
Cl/C=C\C[N+]12CN3CN(CN(C3)C1)C2 [Ih]	–	–	–	–	–	–	–	–	> 500	250	–	250	75	250	–	> 500	–	> 500	> 500	–
Cl/C=C\C[N+]12CN3CN(CN(C3)C1)C2 [Ii]	–	–	–	–	–	–	–	–	100	250	–	250	50	250	–	500	–	500	250	–
Cl/C=C\C[N+]12CN3CN(CN(C3)C1)C2 [Ij]	–	–	–	–	–	–	–	–	250	75	–	250	75	250	–	500	–	500	500	–
